What all share (assay type): cell-based
Assay [1] concerns HSC-1 (cutaneous squamous carcinoma cell line). The assay can be described thus: Cell proliferation (ATPLite) on HSC-1 line. Particulars: 50% inhibition of cell proliferation, read 72 hours after addition. On the procedure:
(§1) The lines N1E115 (ATCC, CRL2263), MDA-MB-231 (ATCC, HTB26) and HSC-1 (Health Science Research Resources Bank, JCRB1015) were cultured in DMEM medium (Dulbecco's Modified Eagle Medium) supplemented with 2 mM of L-Glutamine (Sigma, G7513) and 10% foetal calf serum (Hyclone, SH30109.03) or 20% for the HSC-1 cells. The HCC-1937 (ATCC, CRL2336) and A549 (ATCC, CCL185) lines were cultured in RPMI medium (Roswell Park Memorial Institute Medium) supplemented with 10% foetal calf serum and 2 mM of L-Glutamine. Finally, the SCC114 (DSMZ, ACC662) line was cultured in MEM medium (Minimum Essential Medium Eagle) supplemented with 10% foetal calf serum and 2 mM of L-Glutamine. Initially, in 96-well plates (Perkin Elmer, 6005668), the cells were seeded in their respective culture media with 750 cells per well for N1E115; 1000 cells per well for SCC114 and A549; 2000 cells per well for HCC-1937 and HSC-1; 2500 cells per well for MDA-MB-231. Cascade dilution of each compound was performed in dimethylsulfoxide (DMSO) (Sigma, D8418) from 10 mM stock solutions in 100% DMSO. Each of the dilutions was added to the cells 24 hours after seeding. Under these conditions the final solvent concentration was 0.1% DMSO. Reading of cell proliferation was conducted 72 hours after addition of products with the ATPLite kit (Perkin Elmer, 6016947) and following the manufacturer's directions except in the case of the HCC-1937 line for which this reading was carried out 48 hours after treatment. Analysis of proliferation results was performed by comparing with conditions in which solely the vehicle was added to the cells. The dose-response curves obtained were analysed using Prism 4.03 software (GraphPad Software Inc.) to determine the concentration of each compound allowing 50% inhibition of cell proliferation (IC50).
(§2) As examples, the cytotoxic properties of some compounds of the invention evaluated on the lines A549 (lung cancer cell line), MDA-MB-231 line (mammary adenocarcinoma cell line), N1E115 (mouse brain neuroblastoma cell line), HCC-1937 line (primary ductam breast carcinoma cell line), HSC-1 (cutaneous squamous carcinoma cell line) and SCC114 line (oral squamous carcinoma cell line) are reported in Table 1, as compared with griseofulvin used as control product. The concentration values are expressed in micromolar units (μM).

For assay [2], the system named is A549 (lung cancer cell line). The assay can be described thus: Cell proliferation (ATPLite) on A549 line. Particulars: read 72 hours after addition. On the procedure: as §1, §2
Assay [3] concerns HCC-1937 line (primary ductam breast carcinoma cell line). As to the kind of experiment: Cell proliferation (ATPLite) on HCC-1937 line. Particulars: read 48 hours after treatment. On the procedure: as §1, §2
Assay [4] deals with SCC114 line (oral squamous carcinoma cell line). As to the kind of experiment: Cell proliferation (ATPLite) on SCC114 line. Particulars: read 72 hours after addition. On the procedure:
as §1, §2

Assay [5] has as its system MDA-MB-231 line (mammary adenocarcinoma cell line). The assay can be described thus: Cell proliferation (ATPLite) on MDA-MB-231 line. Particulars: read 72 hours after addition. On the procedure:
as §1, §2

Setting [6] is: 50% inhibition of cell proliferation.
The mark [7] stands for this setting: 50% inhibition of cell proliferation, read-out: IC50 (μM) HCC1937.
The mark [8] stands for this setting: Homo sapiens, HCC1937, 50% inhibition of cell proliferation.
The mark [9] stands for this setting: SCC114, 50% inhibition of cell proliferation.
[10] abbreviates: Homo sapiens, MDA-MB-231, 50% inhibition of cell proliferation.

SMILES strings stand for the structures. Where two headings read alike, the source gives them in different places.

For the molecule `COc1cc(OC)c2c(c1Cl)O[C@]1(C2=O)C2=C(C[C@](CCCCO)(c3ccccc3)O2)C(=O)C[C@H]1C` [compound 14, (2 S,2′S,6R)-7′-chloro-2-(4-hydroxybutyl)-4′,6′-dimethoxy-6-methyl-2-phenyl-5,6-dihydro-2H,3′H-2,7′-spirobi[benzofuran]-3′,4(3H)-dione], the IC50 is 0.86 µM in assay [1]; 0.44 µM in assay [2] (setting [6]); above 10 µM in assay [3] (setting [7]); 0.74 µM in assay [4] (setting [6]); 0.46 µM in assay [5] (setting [6]).
In the same order, the values of `COc1cc(OC)c2c(c1Cl)O[C@]1(C2=O)C2=C(C[C@H](c3ccc(F)cc3)O2)C(=O)C[C@H]1C` [compound 34, (2R,2′S,6R)-7′-chloro-2-(4-fluorophenyl)-4′,6′-dimethoxy-6-methyl-5,6-dihydro-2H,3′H-2,7′-spirobi[benzofuran]-3′,4(3H)-dione] are 0.45 µM, 0.072 µM, above 10 µM, 0.21 µM and 0.18 µM.
With `COc1cc(OC)c2c(c1Cl)O[C@]1(C2=O)C2=C(C[C@@H](c3ccc(F)cc3)O2)C(=O)C[C@H]1C` [compound 35, (2S,2′S,6R)-7′-chloro-2-(4-fluorophenyl)-4′,6′-dimethoxy-6-methyl-5,6-dihydro-2H,3′H-2,7′-spirobi[benzofuran]-3′,4(3H)-dione], the IC50 was 0.38 µM in assay [1], above 10 µM in assay [3] (setting [7]), 0.17 µM in assay [4] (setting [6]) and 0.25 µM in assay [5] (setting [6]).
Regarding `COc1cc(OC)c2c(c1Cl)O[C@]1(C2=O)C2=C(C[C@H](c3ccccc3F)O2)C(=O)C[C@H]1C` [compound 37, (2R,2′S,6R)-7′-chloro-2-(2-fluorophenyl)-4′,6′-dimethoxy-6-methyl-5,6-dihydro-2H,3′H-2,7′-spirobi[benzofuran]-3′,4(3H)-dione], the IC50 is 1.4 µM in assay [1], above 10 µM in assay [3] (setting [7]), 0.47 µM in assay [4] (setting [6]) and 0.27 µM in assay [5] (setting [6]).
For `COc1cc(OC)c2c(c1Cl)O[C@@]1(C=C([S+]([O-])Cc3ccccc3)C(=O)C[C@H]1C)C2=O` (stereo partly drawn) [compound 97, (1′S,6′R)-3′-(benzylsulfinyl)-7-chloro-4,6-dimethoxy-6′-methyl-3H-spiro[benzofuran-2,1′-cyclohex[2]ene]-3,4′-dione], the results for the IC50 in assay [1] and in assay [4] (setting [6]) were 0.14 µM and 0.021 µM, respectively.
On the same counts, the results for `COc1cc(OC)c2c(c1Cl)O[C@@]1(C=C(S(=O)(=O)c3ccccc3)C(=O)C[C@H]1C)C2=O` [compound 98, (1′S,6′R)-7-chloro-4,6-dimethoxy-6′-methyl-3′-(phenylsulfonyl)-3H-spiro[benzofuran-2,1′-cyclohex[2]ene]-3,4′-dione] are 0.76 µM and 0.41 µM.
As for `COc1cc(OC)c2c(c1Cl)O[C@]1(C2=O)C(=O)c2c(nn(C)c2-c2ccccc2Cl)C[C@H]1C` [compound 115, (2S,6′R)-7-chloro-3′-(2-chlorophenyl)-4,6-dimethoxy-2′,6′-dimethyl-6′,7′-dihydro-3H-spiro[benzofuran-2,5′-indazole]-3,4′(2′H)-dione], the half-inhibitory concentration (IC50) in assay [1] was 1.3 µM; in assay [3] (setting [8]), above 10 µM; in assay [4] (setting [9]), 0.73 µM; in assay [5] (setting [10]) it was 0.64 µM.
As to `COc1cc(OC)c2c(c1Cl)O[C@]1(C2=O)C(=O)c2c(nn(C)c2-c2ccccc2Cl)C[C@H]1C` [compound 126, (2S,3′R,6′R)-7-chloro-3′-(2-chlorophenyl)-4,6-dimethoxy-2′,6′-dimethyl-6′,7′-dihydro-3H-spiro[benzofuran-2,5′-indazole]-3,4′(2′H)-dione], the results for the IC50 in assay [1] and in assay [4] (setting [6]) were 2.3 µM and 0.73 µM, respectively.
As for `COc1cc(OC)c2c(c1Cl)O[C@]1(C2=O)C(=O)c2c(nn(C)c2-c2ccccc2Br)C[C@H]1C` [compound 130, (2S,3′S,6′R)-7-chloro-3′-(2-bromophenyl)-4,6-dimethoxy-2′,6′-dimethyl-6′,7′-dihydro-3H-spiro[benzofuran-2,5′-indazole]-3,4′(2′H)-dione], the IC50 is 0.25 µM in assay [1] and 0.14 µM in assay [4] (setting [6]).
On the same counts, the results for `COc1cc(OC)c2c(c1Cl)O[C@]1(C2=O)C(=O)c2c(nn(C)c2-c2ccccc2C(F)(F)F)C[C@H]1C` [compound 135, (2S,3′S,6′R)-7-chloro-4,6-dimethoxy-2′,6′-dimethyl-3′-(2-(trifluoromethyl)phenyl)-6′,7′-dihydro-3H-spiro[benzofuran-2,5′-indazole]-3,4′(2′H)-dione] are 1.3 µM and 0.51 µM.
As for `COC(=O)c1cc(-c2ccc(F)cc2)c2c(n1)C[C@@H](C)[C@]1(Oc3c(Cl)c(OC)cc(OC)c3C1=O)C2=O` [compound 164, (2S,7′R)-methyl 7-chloro-4′-(4-fluorophenyl)-4,6-dimethoxy-7′-methyl-3,5′-dioxo-7′,8′-dihydro-3H,5′H-spiro[benzofuran-2,6′-quinoline]-2′-carboxylate], the IC50 is above 10 µM in assay [1]; 0.45 µM in assay [2] (Homo sapiens, A549, 50% inhibition of cell proliferation); above 10 µM in assay [3] (setting [8]); 0.43 µM in assay [4] (setting [9]); 1.4 µM in assay [5] (setting [10]).
With `COC(=O)C1=C[C@H](c2ccsc2)C2=C(C[C@@H](C)[C@]3(Oc4c(Cl)c(OC)cc(OC)c4C3=O)C2=O)N1` [compound 165, (2S,4′S,7′R)-methyl 7-chloro-4,6-dimethoxy-7′-methyl-3,5′-dioxo-4′-(thiophen-3-yl)-4′,5′,7′,8′-tetrahydro-1′H,3H-spiro[benzofuran-2,6′-quinoline]-2′-carboxylate], the IC50 in assay [1] was 0.5 µM; in assay [3] (setting [8]), above 10 µM; in assay [4] (setting [9]), 0.23 µM; in assay [5] (setting [10]) it was 0.17 µM.
With `COc1cc(OC)c2c(c1Cl)O[C@]1(C2=O)C(N(C)CCN(C)c2ccccn2)=CC(=O)C[C@H]1C` [compound 205, (1′S,6′R)-7-chloro-4,6-dimethoxy-6′-methyl-2′-(methyl(2-(methyl(pyridin-2-yl)amino)ethyl)amino)-3H-spiro[benzofuran-2,1′-cyclohex[2]ene]-3,4′-dione], the IC50 in assay [1] was above 10 µM; in assay [2] (setting [6]), 9.2 µM; in assay [4] (setting [6]) it was 0.62 µM.
With `COC(=O)c1cc(-c2ccsc2)c2c(n1)C[C@@H](C)[C@]1(Oc3c(Cl)c(OC)cc(OC)c3C1=O)C2O` (stereo partly drawn) [compound 255, (2S,7′R)-methyl 7-chloro-5′-hydroxy-4,6-dimethoxy-7′-methyl-3-oxo-4′-(thiophen-3-yl)-7′,8′-dihydro-3H,5′H-spiro[benzofuran-2,6′-quinoline]-2′-carboxylate], the IC50 in assay [1] is 0.77 µM; in assay [3] (setting [8]), above 10 µM; in assay [4] (setting [9]), 0.38 µM; in assay [5] (setting [10]) it was 0.22 µM.
In the same order, the values of `COC(=O)c1cc(-c2ccc(F)cc2)c2c(n1)C[C@@H](C)[C@]1(Oc3c(Cl)c(OC)cc(OC)c3C1=O)C2O` (stereo partly drawn) [compound 256, (2S,7′R)-methyl 7-chloro-4′-(4-fluorophenyl)-5′-hydroxy-4,6-dimethoxy-7′-methyl-3-oxo-7′,8′-dihydro-3H,5′H-spiro[benzofuran-2,6′-quinoline]-2′-carboxylate] are 0.84 µM, above 10 µM, 0.51 µM and 0.33 µM.
In the same order, the values of `COc1cc(OC)c2c(c1Cl)O[C@]1(C2=O)C(O)c2c(-c3ccccc3)cc(C(=O)OC(C)C)nc2C[C@H]1C` (stereo partly drawn) [compound 257, (2S,7′R)-isopropyl 7-chloro-5′-hydroxy-4,6-dimethoxy-7′-methyl-3-oxo-4′-phenyl-7′,8′-dihydro-3H,5′H-spiro[benzofuran-2,6′-quinoline]-2′-carboxylate] are 2.4 µM, above 10 µM, 0.51 µM and 0.43 µM.
